Results on three compounds are retold here after patent US6995262B1, “Use of acylsulfonamido-substituted polymethine dyes as fluorescene dyes and/or markers” (Bayer CropScience AG, priority 1999, dated 2006).

Each structure is given as a SMILES string. Marks after values point to notes of the source that are not given here.

Type in all cases: physicochemical
A short description of data set [1]: Photostability: dye solutions exposed to daylight, reduction of absorption over time. Conditions: after 30 min, starting absorption 1.4 to 1.6 O.D. As for the experimental part: The photostability was determined by exposing dye solutions to daylight. The absorption of the solutions varied between 1.4 and 1.6 O.D. The reduction of the absorption over time is a measure for the photostability of the dyes. These conditions were chosen since the handling of the dyes, too, includes manual process steps during which the dyes are exposed to daylight. In the case of CY5, it is clearly noticeable that, even after 30 min, the absorption has decreased by 12%. This is not the case for the dyes according to the invention, and the latter are thus also more user-friendly, by maintaining a stable absorption.

Data set [2] is described as follows: Aggregate formation: ratio of absorption maxima of monomer and aggregate at increasing salt concentration. Conditions: for characteristics with respect to aggregate formation: with increasing salt concentration. The source says: The intensity of the absorption in the absorption maximum of the monomer is a relative measure for the concentration of the monomer in the solution, the same also applies to the concentration of the aggregate, this can be correlated to the intensity of the absorption in the absorption maximum of the aggregate, which is shifted hypsochronically compared to the monomer. […] The increasing salt concentration causes an aggregate formation.

Data set [3] can be described thus: Extinction coefficient determined assuming Beer's law. Conditions: Beer's law assumed. Here is the method: Determination of the Extinction Coefficient The extinction coefficient was determined assuming that Beer's law applies.
The nature of data set [4]: Relative quantum yield of dye-protein conjugates, determined relative to Cy5. Conditions: protein conjugates at similar molar dye/protein ratios, protein HSA. Here is the method:
The protein used was HSA (Human Serum Albumin).
Determination of the Quantum Yield
The quantum yield was determined relative to Cy5
For labeling, the crude product (1 aliquot) is dissolved in 1 ml of DMF. 50 μl of this solution are pipetted to 1.5 mL (=1 mg) of anti-HSA solution in carbonate buffer pH 9.2. The reaction solution is stirred at RT under the exclusion of light for 2 hours.
Using gel permeation chromatography over a Sephadex G25 column, the conjugate is then separated from unbound dye. The elution buffer used is PBS, pH 7.4.
Protein conjugates of other dyes, which are listed in Table 1, were prepared in an analogous manner.

For the compound `CCN1/C(=C/C=C/C=C/C2=[N+](CCCCCC(=O)O)c3ccc(S(=O)(=O)O)cc3C2(C)C)C(C)(C)c2cc(S(=O)(=O)[O-])ccc21` [CY5, reference compound], in data set [1], the decrease of absorption is listed as 12%. The Absorption monomer/absorption dimer is on record as 3.18 in data set [2] (2.0 M NaCl), 3.19 in data set [2] (3.8 M NaCl) and 3.12 in data set [2] (Water).
Turning to `CC1(C)C(/C=C2\C(=O)C(/C=C3/N(CCCCCC(=O)O)c4ccccc4C3(C)C)=C2O)=[N+](CC(=O)NS(C)(=O)=O)c2ccc(S(=O)(=O)[O-])cc21` [F], the Extinction coefficient in data set [3] is on record as 420 000 mol-1*cm^2*. In addition, the Absorption monomer/absorption dimer in data set [2] (2.0 M NaCl) was 2.81; in data set [2] (3.8 M NaCl), 2.81; in data set [2] (Water) it was 2.89. For the same compound, the “characteristics with respect to aggregate formation” value in data set [2] (in words) is listed as “stable characteristics”. In data set [4], the “rel. Q.Y.” value was found to be 1.35.
`CC1(C)C(/C=C2\C(=O)C(/C=C3/N(CCCCCC(=O)O)c4ccc(S(=O)(=O)[O-])cc4C3(C)C)=C2O)=[N+](CC(=O)NS(C)(=O)=O)c2ccc(S(=O)(=O)O)cc21` [J]: the Extinction coefficient in data set [3] was 240 000 mol-1*cm^2*. For the same compound, the Absorption monomer/absorption dimer amounted to 4.35 in data set [2] (2.0 M NaCl), 4.40 in data set [2] (3.8 M NaCl) and 4.40 in data set [2] (Water). For the same compound, the “aggregate formation compared to CY5” value in data set [2] (in words, from Table 2) is reported as “considerably lower aggregate formation”. For the same compound, the “characteristics with respect to aggregate formation” value in data set [2] (in words) was “stable characteristics”. For the same compound, in data set [4], the “rel. Q.Y.” value is recorded as 1.36.
